Measurements from the NIST ThermoML archive (doi:10.1016/j.jct.2015.12.029).
± gives the expanded uncertainty stated by the source.

Columns and labels:
[1] = 100 kPa, Liquid, Vibrating tube method
[2] = mn = molality of the nth substance listed, in mol/kg; conditions: 100 kPa, Liquid, Vibrating tube method, m2 = 0

SMILES | mass density ([1]; 283.15 K) [kg/m3] | mass density ([1]; 288.15 K) [kg/m3] | mass density ([1]; 293.15 K) [kg/m3] | mass density ([1]; 298.15 K) [kg/m3] | mass density ([1]; 303.15 K) [kg/m3] | mass density ([1]; 308.15 K) [kg/m3] | mass density ([1]; 313.15 K) [kg/m3] | mass density ([1]; 318.15 K) [kg/m3] | mass density ([2]; 283.15 K) [kg/m3] | mass density ([2]; 288.15 K) [kg/m3] | mass density ([2]; 293.15 K) [kg/m3] | mass density ([2]; 298.15 K) [kg/m3] | mass density ([2]; 303.15 K) [kg/m3] | mass density ([2]; 308.15 K) [kg/m3] | mass density ([2]; 313.15 K) [kg/m3] | mass density ([2]; 318.15 K) [kg/m3]
CCCCO [butan-1-ol] | 817.103 ± 0.22 | 813.337 ± 0.22 | 809.548 ± 0.22 | 805.738 ± 0.22 | 801.901 ± 0.22 | 798.032 ± 0.22 | 794.128 ± 0.23 | 790.181 ± 0.23 |  |  |  |  |  |  |  | 
CCCCO [butan-1-ol] + CCCCn1cc[n+](C)c1.F[B-](F)(F)F |  |  |  |  |  |  |  |  | 817.103 ± 0.23 | 813.337 ± 0.23 | 809.548 ± 0.23 | 805.738 ± 0.23 | 801.901 ± 0.23 | 798.032 ± 0.23 | 794.128 ± 0.23 | 790.181 ± 0.23
CCCCO [butan-1-ol] + CCn1cc[n+](C)c1.F[B-](F)(F)F |  |  |  |  |  |  |  |  | 817.103 ± 0.23 | 813.337 ± 0.23 | 809.548 ± 0.23 | 805.738 ± 0.23 | 801.901 ± 0.23 | 798.032 ± 0.23 | 794.128 ± 0.23 | 790.181 ± 0.23
